Read-outs that look alike come from different tables or passages of the source. Each block holds one compound with its values, some of them ahead of it.
How the values were obtained:
[1] = test system: formaldehyde induced nociceptive behaviour; experiment: Formaldehyde test in mice, second (late) phase; assay type: in vivo, mouse; details: for inhibition in vivo at 1 mg/kg / inhibition in vivo at 0.1 mg/kg / inhibition in vivo at 0.3 mg/kg: read-out: inhibition formaldehyde test (n = 10)
[2] = test system: capsaicin induced hypothermie; experiment: Hypothermie assay in the mouse (capsaicin induced hypothermie); assay type: in vivo; details: read-out: inhibition hypothermie (n = 5); for inhibition in vivo at 0.3 mg/kg: 0.3 mg/kg body weight po
[3] = target: T1, vanilloid receptor 1 (VR1/TRPV1) of the rat species (Rattus norvegicus, UniProt O35433); experiment: FLIPR Ca2+ influx assay on rat dorsal root ganglia cells (pharmacological method I); assay type: cell-based
T1 construct: The spinal column is removed from decapitated rats; from tissue; host or cells: primary cells dissociated from rat dorsal root ganglia
T1 sequence (O35433 whole entry): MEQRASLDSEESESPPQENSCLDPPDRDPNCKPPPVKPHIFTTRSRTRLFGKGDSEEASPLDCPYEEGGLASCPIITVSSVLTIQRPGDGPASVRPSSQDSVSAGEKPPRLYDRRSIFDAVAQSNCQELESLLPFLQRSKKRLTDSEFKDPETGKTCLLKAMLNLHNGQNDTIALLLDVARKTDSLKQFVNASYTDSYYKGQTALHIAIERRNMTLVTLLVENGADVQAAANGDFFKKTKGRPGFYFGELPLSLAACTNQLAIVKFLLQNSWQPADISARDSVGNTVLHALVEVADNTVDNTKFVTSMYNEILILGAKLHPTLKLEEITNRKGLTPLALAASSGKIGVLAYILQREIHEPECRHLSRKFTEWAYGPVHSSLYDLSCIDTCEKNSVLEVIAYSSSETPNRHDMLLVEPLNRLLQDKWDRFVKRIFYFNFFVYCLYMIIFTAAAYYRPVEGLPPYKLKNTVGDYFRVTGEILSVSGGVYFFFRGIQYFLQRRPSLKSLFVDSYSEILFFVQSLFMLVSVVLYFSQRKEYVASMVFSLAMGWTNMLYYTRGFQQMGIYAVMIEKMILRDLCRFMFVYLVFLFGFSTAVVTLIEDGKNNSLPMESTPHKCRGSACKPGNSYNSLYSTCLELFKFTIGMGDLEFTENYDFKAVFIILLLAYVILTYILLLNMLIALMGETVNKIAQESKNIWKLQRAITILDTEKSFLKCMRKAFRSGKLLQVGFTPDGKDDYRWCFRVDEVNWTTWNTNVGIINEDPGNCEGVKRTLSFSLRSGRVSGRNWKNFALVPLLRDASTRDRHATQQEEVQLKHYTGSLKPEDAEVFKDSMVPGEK
Summary of the method: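 Primary rat dorsal root ganglion cells loaded with 2 μM Fluo-4, Ca2+ influx read on FLIPR as peak fluorescence. Triplicates, at least 3 independent experiments.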

vanilloid receptor (VR1) = target: T2, vanilloid receptor (VR1) (Homo sapiens, UniProt Q8NER1); experiment: FLIPR Ca2+ influx assay on CHO K1 cells transfected with the VR1 gene (pharmacological method II); assay type: cell-based
T2 construct: expressed in transfected cells; host or cells: CHO K1 cells (ECACC), stably transfected
T2 sequence (Q8NER1 whole entry): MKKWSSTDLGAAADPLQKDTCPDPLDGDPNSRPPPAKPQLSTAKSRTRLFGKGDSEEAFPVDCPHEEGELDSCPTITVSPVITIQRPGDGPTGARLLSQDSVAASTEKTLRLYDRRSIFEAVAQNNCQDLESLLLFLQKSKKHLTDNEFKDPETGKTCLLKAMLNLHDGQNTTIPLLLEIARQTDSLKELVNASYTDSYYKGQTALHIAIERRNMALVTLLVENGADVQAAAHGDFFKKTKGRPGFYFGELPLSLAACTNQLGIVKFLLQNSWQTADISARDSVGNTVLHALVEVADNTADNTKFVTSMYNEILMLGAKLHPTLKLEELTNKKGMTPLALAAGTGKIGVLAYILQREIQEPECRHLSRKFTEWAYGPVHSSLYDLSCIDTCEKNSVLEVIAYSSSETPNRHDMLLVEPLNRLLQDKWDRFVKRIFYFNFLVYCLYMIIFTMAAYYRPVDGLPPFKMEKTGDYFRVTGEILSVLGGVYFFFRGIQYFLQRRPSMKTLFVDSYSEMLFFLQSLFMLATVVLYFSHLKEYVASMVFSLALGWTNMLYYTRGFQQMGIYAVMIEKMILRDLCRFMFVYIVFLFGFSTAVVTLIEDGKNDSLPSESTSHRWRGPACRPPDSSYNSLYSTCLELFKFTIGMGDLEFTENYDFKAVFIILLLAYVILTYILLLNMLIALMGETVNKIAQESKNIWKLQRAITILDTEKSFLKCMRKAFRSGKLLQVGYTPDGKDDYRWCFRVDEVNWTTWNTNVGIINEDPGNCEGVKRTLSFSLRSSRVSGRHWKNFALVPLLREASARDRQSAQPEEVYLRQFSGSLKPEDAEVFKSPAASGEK

VR1/TRPV1 receptor = VR1/TRPV1 receptor (Homo sapiens, UniProt Q8NER1); experiment: IC50 (human) after pH stimulus; assay type: cell-based
Sequence of VR1/TRPV1 receptor (Q8NER1 whole entry): as above

[4] = table 4, capsaicin, read-out: Ki (rat) Cap.
[5] = table 4, capsaicin, read-out: Ki (human) Cap.
[6] = 0.1 mg/kg body weight po, mouse
[7] = 0.3 mg/kg body weight po, mouse
[8] = Table 2, displacement of capsaicin (100 nM), Cheng-Prusoff, read-out: Ki (rat)
[9] = Table 2, displacement of capsaicin (100 nM), Cheng-Prusoff, read-out: Ki (human)

Structure (SMILES): CC(C(=O)NCc1ccc(C(F)(F)F)cc1N1CCCCCCC1)c1ccc(NS(C)(=O)=O)c(F)c1 (stereo not drawn) [Compound 217]
inhibition in vivo at 1 mg/kg ([1]; 1 mg/kg body weight po, mouse): 37% | inhibition in vivo at 0.3 mg/kg ([2]; mouse): 97%

Structure (SMILES): CCCCOc1nc(C(F)(F)Cl)ccc1CNC(=O)C(C)c1ccc(NS(C)(=O)=O)c(F)c1 (stereo not drawn) [Example 140, N-[2-butoxy-6-(chlor-difluor-methyl)-pyridin-3-ylmethyl]-2-(3-fluoro-4-methylsulfonamido-phenyl)-propionamide]
Ki [3, 4]: 0.4 nM | Ki (vanilloid receptor (VR1); [5]): 0.7 nM | IC50 (VR1/TRPV1 receptor; table 4): 9.2 nM | inhibition formaldehyde test (n = 10) [1, 6]: 0.1 po 56%

Structure (SMILES): CC(C(=O)NCc1ccc(C(C)(C)C)nc1OC1CCCC1)c1ccc(NS(C)(=O)=O)c(F)c1 (stereo not drawn) [Compound 234]
inhibition in vivo at 0.1 mg/kg [1, 6]: 28% | inhibition in vivo at 0.3 mg/kg [1, 7]: 41% | inhibition in vivo at 1 mg/kg ([1]; 1 mg/kg body weight po, mouse): 44% | inhibition in vivo at 0.3 mg/kg ([2]; mouse): 31%

Structure (SMILES): CC(C(=O)NCc1ccc(C(F)(F)F)nc1N1CCC(c2ccccc2)(N(C)C)CC1)c1ccc(NS(C)(=O)=O)c(F)c1 (stereo not drawn) [Example 330, N-(4-dimethylamino-4-phenyl-6′-trifluoromethyl-3,4,5,6-tetrahydro-2H-[1,2′]bipyridinyl-3′-ylmethyl)-2-(3-fluoro-4-methylsulfonamido-phenyl)-propionamide]
inhibition in vivo at 1 mg/kg ([1]; Mus musculus, po): 54% | inhibition in vivo at 1 mg/kg ([2]; Mus musculus, po): 7%

Ki [3, 4]: 22.4 nM | Ki (vanilloid receptor (VR1); [5]): 63.3 nM | IC50 (VR1/TRPV1 receptor; table 4): 1320 nM
Structure (SMILES): CC(C(=O)NCc1ccc(C(F)(F)F)nc1-c1ccccc1F)c1ccc(NS(C)(=O)=O)c(F)c1 (stereo not drawn) [Example 150, 2-(3-fluoro-4-methylsulfonamido-phenyl)-N-[2-(2-fluoro-phenyl)-6-trifluoromethyl-pyridin-3-ylmethyl]-propionamide]
inhibition in vivo at 0.3 mg/kg [1, 7]: 17%

Ki [3, 8]: 0.8 nM | Ki (vanilloid receptor (VR1); [9]): 1.3 nM | IC50 (VR1/TRPV1 receptor; Table 2): 22.4 nM
Structure (SMILES): CC(C(=O)NCc1ccc(C(F)(F)Cl)nc1N1CCCCC1)c1ccc(NS(C)(=O)=O)c(F)c1 (stereo not drawn) [Example 71, N-((6-(chlorodiflouromethyl)-2-(piperidin-1-yl)pyridin-3-yl)methyl)-2-(3-fluoro-(4-methylsulfonamido)phenyl)propanamide]
inhibition formaldehyde test (n = 10) [1, 7]: 0.3 po 0%

Structure (SMILES): CC(C)CCOc1nc(C(C)(C)C)ccc1CNC(=O)C(C)c1ccc(NS(C)(=O)=O)c(F)c1 (stereo not drawn) [Example 329, N-[6-tert-butyl-2-(3-methyl-butoxy)-pyridin-3-ylmethyl]-2-(3-fluoro-4-methylsulfonamido-phenyl)-propionamide]
Ki (vanilloid receptor (VR1); [5]): 0.8 nM | IC50 (VR1/TRPV1 receptor; table 4): 179 nM | inhibition in vivo at 1 mg/kg ([1]; 1 mg/kg body weight po, mouse): 54% | inhibition in vivo at 1 mg/kg ([2]; 1 mg/kg body weight po, mouse): 7%

Ki [3, 8]: 2.5 nM | Ki (vanilloid receptor (VR1); [9]): 2.3 nM | IC50 (VR1/TRPV1 receptor; Table 2): 121 nM
Structure (SMILES): CC(C(=O)NCc1ccc(C(F)(F)F)cc1N1CCCC1)c1ccc(NS(C)(=O)=O)c(F)c1 (stereo not drawn) [Example 34, 2-(3-fluoro-4-(methylsulfonamido)phenyl)-N-(2-(pyrrolidin-1-yl)-4-(trifluoromethyl)benzyl)propanamide]
inhibition in vivo at 0.1 mg/kg [1, 6]: 6%

Ki ([3]; Ki (rat), Table 2, displacement of capsaicin (100 nM), Cheng-Prusoff): 1.5 nM | Ki (vanilloid receptor (VR1); [9]): 1.3 nM | IC50 (VR1/TRPV1 receptor; Table 2): 43.4 nM
Structure (SMILES): CC(C(=O)NCc1ccc(C(F)(F)F)nc1OC1CCCCC1)c1ccc(NS(C)(=O)=O)c(F)c1 (stereo not drawn) [Example 76]
inhibition in vivo at 0.3 mg/kg [1, 7]: 12%

Structure (SMILES): CC(C(=O)NCc1ccc(C(F)(F)F)nc1OCCC(C)(C)C)c1ccc(NS(C)(=O)=O)c(F)c1 (stereo not drawn) [Compound 125]
inhibition in vivo at 1 mg/kg ([1]; 1 mg/kg body weight po, mouse): 19% | inhibition in vivo at 0.3 mg/kg ([2]; mouse): 37% | inhibition in vivo at 1 mg/kg ([2]; 1 mg/kg body weight po, mouse): 32% | inhibition in vivo at 3 mg/kg ([2]; 3 mg/kg body weight po, mouse): 65%

Ki [3, 4]: 1.9 nM
Structure (SMILES): CC(C(=O)NCc1ccc(C(F)(F)F)nc1OCCc1ccccc1)c1ccc(NS(C)(=O)=O)c(F)c1 (stereo not drawn) [Example 178, 2-(3-fluoro-4-methylsulfonamido-phenyl)-N-(2-phenethyloxy-6-trifluoromethyl-pyridin-3-ylmethyl)-propionamide]
inhibition in vivo at 0.3 mg/kg [1, 7]: 16% | inhibition in vivo at 0.3 mg/kg ([2]; mouse): 42%

inhibition at 10 µM ([3]; @ 10 μM, read-out: inhibition in percent, Ki (rat) Cap.): 4% | inhibition at 10 µM (vanilloid receptor (VR1); CHO-K1, @ 10 μM, read-out: inhibition in percent, Ki (human) Cap.): 0.5%
Structure (SMILES): CC(C(=O)NCc1ccc(C(F)(F)F)nc1N1CCC(N2CCCC2)CC1)c1ccc(NS(C)(=O)=O)c(F)c1 (stereo not drawn) [Compound 165]
inhibition in vivo at 1 mg/kg ([1]; 1 mg/kg body weight po, mouse): 15%

Source: patent US8710233B2 (Gruenenthal GmbH, priority 2005, dated 2014)
